Test results reported in patent publication US20250276031A1, “PRODRUGS AS SELECTIVE ANTIBIOTICS AGAINST COLIBACTIN-PRODUCING E. COLI” (New York University in Abu Dhabi Corporation, priority 2024, published 2025).

Experiments:
[1] = test system: E. coli C41 DE3 pet29b_clbP pSEVA631_mGFP and E. coli C41 DE3 pet29b pSEVA_mScarlet-i; assay: Co-culture competition assay with PXCNA (mGFP / mScarlet-i fluorescence, OD600); assay type: cell-based
Description: PXCNA activity was measured via fluorescence (see FIGS. 18 and 19).
A co-culture assay was performed. Overnight cultures of E. coli C41 DE3 pet29b_cIbP pSEVA631_mGFP and E. coli C41 DE3 pet29b pSEVA_mScarlet-i were prepared separately each from a single colony. Then 1:100 dilution of each culture into the same LB media well supplemented with kanamycin (50 μg/ml) and gentamycin (15 μg/ml) was performed. […] Samples were fed with PXCNA with a final concentration of 25 mg/L.

[2] = test system: E. coli expressing the ClbP protease; assay: Growth curves with PXCNA; assay type: cell-based; settings: crude extract, 10, 25, 50 mg/L; IPTG induced; 22° C., 24 hrs, OD600
Description: Growth curves made using PXCNA. Briefly, a single colony from E. coli strain C41(DE3)_ΔacrABpET-29b clbP strain was inoculated into LB medium supplemented with kanamycin (50 μg/ml). This culture was grown overnight at 37° C. while shaking at 200 RPM. 1:100 dilution of overnight culture into fresh LB medium supplemented with kanamycin (50 μg/ml) was performed. Samples were induced with IPTG (0.5 mM). A crude extract of PXCNA prepared in methanol (1 mg/ml). The final concentration in samples was 50 mg/L, 25 mg/L and 10 mg/L. Samples were incubated at 22° C. for 24 hrs and OD600 was measured using TecanSpark.

[3] = test system: Escherichia coli ribosome; settings: comparison value, no own experiment described; read-out: IC50 of chloramphenicol given for comparison; cited from earlier work

| Structure (SMILES) | mGFP and mScarlet-i fluorescence in co-culture ([1]; PXCNA 25 mg/L, vanillic acid, with or without IPTG) | OD600 growth of E. coli C41 DE3 pet29b_clbP pSEVA631_mGFP ([1]; only vanillic acid and PXCNA added, no IPTG) | selective killing of ClbP expressing E. coli [2] | IC50 [3] [µM] |
| --- | --- | --- | --- | --- |
| CC(C)CCCC(=O)N[C@H](CC(N)=O)C(=O)N[C@@H](CCCN=C(N)N)[C@H](O)[C@H](O)C(=O)N[C@@H](CC(C)C)[C@@H]1Cc2cccc(O)c2C(=O)O1 [PXCNA, prexenocoumacin] | low level of fluorescence observed for both | growth did not appear inhibited | kills selectively E. coli expressing the ClbP protease |  |
| O=C(N[C@H](CO)[C@H](O)c1ccc([N+](=O)[O-])cc1)C(Cl)Cl [chloramphenicol] |  |  |  | 2.8 |
